Data on 20 compounds can be found in publication PMC10039877 (Scientific Reports, 2023).

Molecules are shown by their SMILES. Values joined by “and” are separate entries in the source; they are usually repeats but may differ in a detail not shown here. Equal entries are not always repeated.

T1 sequence (P81908 whole entry): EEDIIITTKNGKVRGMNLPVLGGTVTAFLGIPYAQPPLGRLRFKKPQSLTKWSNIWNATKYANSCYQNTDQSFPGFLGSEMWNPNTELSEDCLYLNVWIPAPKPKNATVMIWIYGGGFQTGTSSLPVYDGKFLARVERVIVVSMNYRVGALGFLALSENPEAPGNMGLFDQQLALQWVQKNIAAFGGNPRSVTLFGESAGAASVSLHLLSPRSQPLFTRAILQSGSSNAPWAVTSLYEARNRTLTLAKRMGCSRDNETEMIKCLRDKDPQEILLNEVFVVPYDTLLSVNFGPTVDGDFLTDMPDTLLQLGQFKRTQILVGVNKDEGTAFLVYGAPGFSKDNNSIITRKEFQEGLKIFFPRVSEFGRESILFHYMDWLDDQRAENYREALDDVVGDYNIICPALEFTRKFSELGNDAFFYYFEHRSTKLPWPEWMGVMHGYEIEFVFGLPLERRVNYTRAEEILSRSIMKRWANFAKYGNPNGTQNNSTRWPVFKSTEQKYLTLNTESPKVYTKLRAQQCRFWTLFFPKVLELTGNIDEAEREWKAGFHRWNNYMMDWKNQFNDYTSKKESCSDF

One experiment has as its target T1, BChE (Equus caballus, UniProt P81908). The experiment can be described thus: biochemical. The class given is biochemical. As to conditions: BChE: IC50 (μM) ± SEM, in vitro, triplicates.
`Cc1cccc(NC(=O)OCCN(C)C(=O)C(=O)c2c[nH]c3ccccc23)c1` [17a, 2-(2-(1H-indol-3-yl)-N-methyl-2-oxoacetamido)ethyl m-tolylcarbamate] gave a half-maximal inhibitory concentration (IC50) of more than 50 µM.
Compound `CCc1ccc(NC(=O)OCCN(C)C(=O)C(=O)c2c[nH]c3ccccc23)cc1` [17b, 2-(2-(1H-indol-3-yl)-N-methyl-2-oxoacetamido)ethyl (4-ethylphenyl)carbamate] returned an IC50 of more than 50 µM.
With `Cc1ccccc1NC(=O)OCCN(C)C(=O)C(=O)c1c[nH]c2ccccc12` [17c, 2-(2-(1H-indol-3-yl)-N-methyl-2-oxoacetamido)ethyl o-tolylcarbamate], the IC50 is more than 50 µM.
For `CN(CCOC(=O)Nc1cccc(Cl)c1)C(=O)C(=O)c1c[nH]c2ccccc12` [17d, 2-(2-(1H-indol-3-yl)-N-methyl-2-oxoacetamido)ethyl (3-chlorophenyl)carbamate], the half-inhibitory concentration (IC50) was more than 50 µM.

Still in this experiment, the particulars now being: in vitro, triplicates; read-out: BChE: IC50 (μM) ± SEM.
`CN(CC(=O)Nc1ccccc1F)C(=O)C(=O)c1c[nH]c2ccccc12` [8a, N-(2-((2-fluorophenyl)amino)-2-oxoethyl)-2-(1H-indol-3-yl)-N-methyl-2-oxoacetamide]: the IC50 was more than 50 µM.
Consider `COc1ccc(NC(=O)CN(C)C(=O)C(=O)c2c[nH]c3ccccc23)c(C)c1` [8b, 2-(1H-indol-3-yl)-N-(2-((4-methoxy-2-methylphenyl)amino)-2-oxoethyl)-N-methyl-2-oxoacetamide], for which the concentration for half-maximal inhibition (IC50) was more than 50 µM.
Take `Cc1cc(C)c(NC(=O)CN(C)C(=O)C(=O)c2c[nH]c3ccccc23)c(C)c1` [8c, 2-(1H-indol-3-yl)-N-(2-(mesitylamino)-2-oxoethyl)-N-methyl-2-oxoacetamide]: the IC50 is < 50 µM and 3.95 µM and 3.94 µM.
Turning to `Cc1ccccc1NC(=O)CN(C)C(=O)C(=O)c1c[nH]c2ccccc12` [8d, 2-(1H-indol-3-yl)-N-methyl-2-oxo-N-(2-oxo-2-(o-tolylamino)ethyl)acetamide], the concentration for half-maximal inhibition (IC50) was < 50 µM and 19.6 µM.
Same read-out and setting: the figure for `COc1ccccc1NC(=O)CNC(=O)C(=O)c1c[nH]c2ccccc12` [13a, 2-(1H-indol-3-yl)-N-(2-((2-methoxyphenyl)amino)-2-oxoethyl)-2-oxoacetamide] is more than 50 µM.
`COc1ccc(NC(=O)CNC(=O)C(=O)c2c[nH]c3ccccc23)cc1` [13b, 2-(1H-indol-3-yl)-N-(2-((4-methoxyphenyl)amino)-2-oxoethyl)-2-oxoacetamide]: the IC50 was more than 50 µM.
`Cc1ccc(NC(=O)CNC(=O)C(=O)c2c[nH]c3ccccc23)cc1C` [13c, N-(2-((3,4-dimethylphenyl)amino)-2-oxoethyl)-2-(1H-indol-3-yl)-2-oxoacetamide]: the IC50 is more than 50 µM.
Take `CCCCc1ccc(NC(=O)CNC(=O)C(=O)c2c[nH]c3ccccc23)cc1` [13d, N-(2-((4-butylphenyl)amino)-2-oxoethyl)-2-(1H-indol-3-yl)-2-oxoacetamide]: the IC50 is more than 50 µM.
As for `Cc1cc(C)c(NC(=O)CNC(=O)C(=O)c2c[nH]c3ccccc23)c(C)c1` [13e, 2-(1H-indol-3-yl)-N-(2-(mesitylamino)-2-oxoethyl)-2-oxoacetamide], the IC50 was more than 50 µM.
With `Cc1cc(C)cc(NC(=O)CNC(=O)C(=O)c2c[nH]c3ccccc23)c1` [13f, N-(2-((3,5-dimethylphenyl)amino)-2-oxoethyl)-2-(1H-indol-3-yl)-2-oxoacetamide], the half-inhibitory concentration (IC50) is more than 50 µM.
In the case of `Cc1ccccc1NC(=O)CNC(=O)C(=O)c1c[nH]c2ccccc12` [13g, 2-(1H-indol-3-yl)-2-oxo-N-(2-oxo-2-(o-tolylamino)ethyl)acetamide], the half-maximal inhibitory concentration (IC50) was more than 50 µM.
On to `Cc1ccc(NC(=O)CNC(=O)C(=O)c2c[nH]c3ccccc23)cc1Cl` [13h, N-(2-((3-chloro-4-methylphenyl)amino)-2-oxoethyl)-2-(1H-indol-3-yl)-2-oxoacetamide], for which the half-inhibitory concentration (IC50) was more than 50 µM.
`COc1ccc(NC(=O)CNC(=O)C(=O)c2c[nH]c3ccccc23)c(OC)c1` [13i, N-(2-((2,4-dimethoxyphenyl)amino)-2-oxoethyl)-2-(1H-indol-3-yl)-2-oxoacetamide]: the IC50 is more than 50 µM.
For `COc1cccc(NC(=O)CNC(=O)C(=O)c2c[nH]c3ccccc23)c1` [13j, 2-(1H-indol-3-yl)-N-(2-((3-methoxyphenyl)amino)-2-oxoethyl)-2-oxoacetamide], the concentration for half-maximal inhibition (IC50) is more than 50 µM.
With `O=C(CNC(=O)C(=O)c1c[nH]c2ccccc12)Nc1ccccc1F` [13k, N-(2-((2-fluorophenyl)amino)-2-oxoethyl)-2-(1H-indol-3-yl)-2-oxoacetamide], the IC50 is more than 50 µM.

For another experiment, the target named is T1, BChE. The experiment can be described thus: Enzyme kinetics study (Lineweaver-Burk plots) of 8c on BChE. The note with it: BTCI substrate 0.05 to 0.8 mM, Lineweaver-Burk. The class given is biochemical. As to the method: The inhibition type was determined by analyzing the Lineweaver–Burk plots.
All common chemicals were purchased from commercial sources and used without further purification. The water used was distilled water. Reaction progress was monitored using analytical thin layer chromatography (TLC, detected by UV light 254 nm) on precoated silica gel HSGF254 plates (Qingdao Haiyang Chemical Plant, China). Column chromatography was performed on silica gel (200 ~ 300 mesh; Qingdao Dingkang Chemical Inc.). […] Proton coupling patterns are described as singlet (s), doublet (d), double doublet (dd), triplet (t), and multiplet (m). ESI–MS date were recorded on a Waters Quattro Premier XE triquadrupole mass spectrometer (Waters Corporation, USA), while ESI-HRMS date were recorded on a Q-TOF Priemier mass spectrometer (Micromass, Manchester, UK). The enzyme kinetic assay was performed on an EnSpire Enzyme Marker (Thermos Fisher, USA).
Kinetic studies were performed in same method as described in BChE inhibition assays. The substrate (BTCI) at five concentrations (from 0.05 to 0.8 mM) was determined for 8c at different […] to reveal its inhibition model, and reciprocal plots of 1/V versus 1/[S]. The kinetic parameters and apparent inhibition constants were calculated by the “Enzyme kinetics” module of Prism.
In the case of `Cc1cc(C)c(NC(=O)CN(C)C(=O)C(=O)c2c[nH]c3ccccc23)c(C)c1` [8c, 2-(1H-indol-3-yl)-N-(2-(mesitylamino)-2-oxoethyl)-N-methyl-2-oxoacetamide], the Ki was 3.27 µM and the Vmax is given as 105.26.

Staying with this experiment, now noted: Lineweaver-Burk plot.
Regarding `Cc1cc(C)c(NC(=O)CN(C)C(=O)C(=O)c2c[nH]c3ccccc23)c(C)c1` [8c, 2-(1H-indol-3-yl)-N-(2-(mesitylamino)-2-oxoethyl)-N-methyl-2-oxoacetamide], the inhibition type result is given as “mixed-type”.

A further experiment addresses T1, BChE.
Assay: not given
Details: method as in PMID 33759552. As to conditions: in vitro; found in previous study; read-out: BChE IC50 of starting compound; cited from earlier work.
Take `COc1cccc(NC(=O)CN(C)C(C)C(=O)c2c[nH]c3ccccc23)c1` (stereo not drawn) [compound 970180]: the half-inhibitory concentration (IC50) was 4.24 ± 0.16 µM.

In the next experiment the target is T1, BChE.
Assay: not given
Details: method as in PMID 33759552. As to conditions: previous study; cited from earlier work.
Take `COc1cccc(NC(=O)CN(C)C(C)C(=O)c2c[nH]c3ccccc23)c1` (stereo not drawn) [compound 970180]: the inhibition type entry is on record as “mixed-type”.
